No end group written: not given here.
How the values were obtained:
CCL18 = biological target: T1, CCL18 (Homo sapiens, UniProt P55774); assay: Fluorescence polarisation (anisotropy) assay; assay type: binding; settings: fluorescence polarisation displacement assay
T1 construct: purchased Peprotech
T1 sequence (P55774 21-89): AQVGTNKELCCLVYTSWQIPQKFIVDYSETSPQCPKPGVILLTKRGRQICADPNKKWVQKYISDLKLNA
Procedure: (§1) FIG. 14(B). Fluorescence polarisation assay showing binding of chemokines to P672_PEP-FITC. The measured fluorescence anisotropy (y-axis) of P672_PEP-FITC (50 nM) following binding to a fixed dose (1 μM)) of CCL7, CCL8, CCL18 and CXCL1 (negative control). […] Statistical significance was determined using one-way ANOVA with Sidak's correction for multiple comparisons using Graph Pad Prism 6. **=p<0.005, ****=P<0.00005, ns=not significant.
(§2) FIG. 15(C). Displacement of P672_PEP-FITC from CCL18 by P672_PEP. In each case 100 μM (++) or […] (+) of P672_PEP was incubated with P672_PEP-FITC (50 nM)/chemokine (1 μM CCL7 and CCL18; 500 nM CCL8) and the resulting anisotropy measured. A peptide with the P672_PEP sequence scrambled ([…]) served as a negative control (P672_PEP_SCRAM; […]). Experiment carried out in triplicate where each data point is the average of one experiment carried out in technical triplicate. Mean with SEM shown and statistical significance was determined using one-way ANOVA with Sidak's correction for multiple comparisons using Graph Pad Prism 6. *=p<0.05, ***=p<0.0005, ****=P<0.00005, ns=not significant.
(§3) Fluorescence polarization assays were performed using a Clariostar (BMG Tech) plate reader with the supplied FITC excitation and emission filters using 96 half area well plates (Corning). The buffer used (FP assay buffer) was 50 mM HEPES, 150 mM NaCl, 0.1% BSA, 0.002% TWEEN-20, 0.2% DMSO, pH 7.4 and the final volume in each well was 30 μL. Polarization was converted to anisotropy using the equation A=(2*P)/(3−P) where P is polarization and A is anisotropy. For each peptide tested the gain was set to 35 mP and adjusted to a well containing fluorescent peptide only. The polarization of the emitted light in the FITC emission channel was then determined. Experiments were performed as two technical and three biological replicates. Screening of P672 peptide fragments was achieved through incubation of each peptide (50 nM) with 1 μM CCL8 (Peprotech) for 30 minutes in FP assay buffer and the resulting anisotropy of the emitted light determined as above. The chemokine cross binding screen was performed by incubating 1 μM chemokine (Peprotech) with 50 nM BK1.1FITC for half an hour in FP assay buffer and the resulting anisotropy of the emitted light determined as above. To monitor BK1.1FITC Ala mutants of binding to CCL8, 50 nM labelled peptide was incubated with varying concentrations of recombinant CCL8 (0-25 μM, final) in 30 μL FP assay buffer for 30 minutes and the resulting anisotropy of the emitted light determined as above. The anisotropy was plotted as a function of CCL8 concentration and fitted to the equation: Y=Bmax*X/(KD+X)+NS*X+Background, where Y is the measured anisotropy, X is the concentration of CCL8 added, Bmax is the maximum binding, KD is the equilibrium dissociation constant, NS is the slope of the nonlinear regression and Background is the anisotropy when no CCL8 is present, in Graph Pad Prism. Displacement assays were carried out with CCL7, CCL8, and CCL18 (Peprotech, 1 μM). […] For all FP assays, the experiments were carried out as two technical and three biological replicates.

CCL7 = biological target: T2, CCL7 (Homo sapiens, UniProt P80098); assay: Fluorescence polarisation (anisotropy) assay; assay type: binding; settings: fluorescence polarisation displacement assay
T2 construct: purchased Peprotech
Procedure: as §1, §2, §3

T2 sequence (P80098 24-99): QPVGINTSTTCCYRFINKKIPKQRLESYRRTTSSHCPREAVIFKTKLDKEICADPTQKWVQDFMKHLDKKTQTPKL

Question: With EDEDYEDFFKPVTAYF-NH2 [BK1.1] as the substance, how does the “Displacement of FITC-labelled peptide from CCL18 by unlabelled peptide” value (CCL18) read?
Answer: indicate its binding

Question: What about the “Displacement of FITC-labelled peptide from CCL18 by unlabelled peptide” value (CCL18; listed as P672_PEP) of the same substance?
Answer: able to displace labelled peptide bound to chemokine

Question: What about the “Displacement of FITC-labelled peptide from CCL7 by unlabelled peptide” value (CCL7) of the same substance?
Answer: indicate its binding

Question: And the “Displacement of FITC-labelled peptide from CCL7 by unlabelled peptide” value (CCL7; listed as P672_PEP)?
Answer: able to displace labelled peptide bound to chemokine

From patent US20200247855A1, “THERAPY AND DIAGNOSTICS” (OXFORD UNIVERSITY INNOVATION LIMITED, priority 2017, published 2020)
